ChEMBL document CHEMBL1201862, “PubChem BioAssay data set” (2004)
Calls of active or inactive are those of the source.

How the values were obtained:
[1] = growth inhibition of yeast DHODH-expressing 3D7 parasites – SYBR Green, dry powder samples, dose response (AID 1159570); assay type: functional, cell-based;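 also: parasite growth measured after 72 hours of compound exposure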
[2] = growth inhibition of PfATP4-mutant resistant parasites – NITD609-resistant line, SYBR Green, dry powder, dose response (AID 1159571); assay type: functional, cell-based;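 also: parasites synchronized at ring stage by sorbitol before testing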
[3] = Dd2 parasite growth inhibition in erythrocytes – SYBR Green, dry powder samples, set 9, dose response (AID 1159568); assay type: functional, cell-based
[4] = Dd2 malaria parasite growth inhibition potency – SYBR Green, dry powder samples, dose response (AID 1159566); assay type: functional, cell-based;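 also: potency for growth inhibition with lower SYBR green DNA signal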
[5] = P. falciparum Dd2 growth inhibitors, dose response, SYBR Green, cherry-picked samples (AID 1159567); assay type: functional, cell-based
[6] = toxicity to human HepG2 hepatoma cells – cell-based, plate reader, dry powder samples, cytotoxicity control, dose response (AID 1159569); assay type: functional;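 also: inhibitor potency with signal falling toward the positive control level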
[7] = target: Eukaryotic translation initiation factor 4E (Mus musculus, UniProt P63073); experiment: blockers of eIF4G binding by eIF4E – biochemical, TR-FRET, dose response (AID 855); assay type: functional;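 also: potency for disrupting eIF4E binding to eIF4GI seen as loss of FRET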
[8] = toxicity to human hepatoma HepG2 cells – cell-based, cherry-picked samples, cytotoxicity control, dose response (AID 1159577); assay type: functional
[9] = test system: H9c2; experiment: cells; assay type: functional, cell-based; details: Rattus norvegicus, H9c2, Myocardium;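 also: confirmatory concentration-response retest of ultra-high-throughput screening hits for modulation of myocardial damage; cell death induced by hydrogen peroxide oxidative stress; compound pretreatment for 60 min then peroxide exposure for 2 h; potency is for protecting the cells against peroxide damage rather than for killing them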
[10] = target: T1, 1-phosphatidylinositol 4,5-bisphosphate phosphodiesterase beta-3 (Homo sapiens, UniProt Q01970); experiment: Fluorescence-based biochemical high throughput dose response assay to identify inhibitors of phospholipase C isozymes (PLC-B3).
T1 sequence (Q01970 whole entry): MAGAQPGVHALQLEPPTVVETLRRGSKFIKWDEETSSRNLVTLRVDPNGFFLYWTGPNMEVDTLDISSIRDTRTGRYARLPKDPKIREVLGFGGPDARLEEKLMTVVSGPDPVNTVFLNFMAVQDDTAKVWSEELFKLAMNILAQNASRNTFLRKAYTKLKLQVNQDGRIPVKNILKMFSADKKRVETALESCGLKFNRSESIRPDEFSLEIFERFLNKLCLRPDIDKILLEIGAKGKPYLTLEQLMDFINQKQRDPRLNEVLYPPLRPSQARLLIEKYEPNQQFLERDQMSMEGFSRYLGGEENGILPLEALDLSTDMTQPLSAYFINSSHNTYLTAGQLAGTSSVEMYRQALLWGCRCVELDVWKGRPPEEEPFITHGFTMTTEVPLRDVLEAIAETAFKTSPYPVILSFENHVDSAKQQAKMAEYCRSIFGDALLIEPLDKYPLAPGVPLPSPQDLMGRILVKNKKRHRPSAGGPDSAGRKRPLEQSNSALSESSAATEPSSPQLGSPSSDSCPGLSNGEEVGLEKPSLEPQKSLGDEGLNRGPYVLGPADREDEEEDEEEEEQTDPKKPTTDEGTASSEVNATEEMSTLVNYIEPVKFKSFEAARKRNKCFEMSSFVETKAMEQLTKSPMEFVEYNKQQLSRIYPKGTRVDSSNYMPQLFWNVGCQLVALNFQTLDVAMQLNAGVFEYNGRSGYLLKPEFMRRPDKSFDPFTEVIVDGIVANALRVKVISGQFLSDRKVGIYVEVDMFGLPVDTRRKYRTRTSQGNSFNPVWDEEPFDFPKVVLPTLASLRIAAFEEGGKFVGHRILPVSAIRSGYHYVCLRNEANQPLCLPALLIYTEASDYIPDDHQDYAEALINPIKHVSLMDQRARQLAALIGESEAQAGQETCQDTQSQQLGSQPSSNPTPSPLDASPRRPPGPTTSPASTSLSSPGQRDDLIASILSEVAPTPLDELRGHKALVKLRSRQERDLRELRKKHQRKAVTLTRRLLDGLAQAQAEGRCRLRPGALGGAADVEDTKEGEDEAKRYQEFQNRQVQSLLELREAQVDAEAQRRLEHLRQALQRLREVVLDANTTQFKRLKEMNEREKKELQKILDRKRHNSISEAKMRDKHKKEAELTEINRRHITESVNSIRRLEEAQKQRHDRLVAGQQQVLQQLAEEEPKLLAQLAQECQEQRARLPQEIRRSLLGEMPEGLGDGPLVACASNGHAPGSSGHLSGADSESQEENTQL

[11] = target: T2, 1-phosphatidylinositol 4,5-bisphosphate phosphodiesterase gamma-1 (Homo sapiens, UniProt P19174); experiment: Counterscreen for inhibitors of phospholipase C isozymes (PLC-B3): Fluorescence-based biochemical high throughput dose response assay to identify inhibitors of phospholipase C isozymes (PLC-gamma1).
T2 sequence (P19174 whole entry): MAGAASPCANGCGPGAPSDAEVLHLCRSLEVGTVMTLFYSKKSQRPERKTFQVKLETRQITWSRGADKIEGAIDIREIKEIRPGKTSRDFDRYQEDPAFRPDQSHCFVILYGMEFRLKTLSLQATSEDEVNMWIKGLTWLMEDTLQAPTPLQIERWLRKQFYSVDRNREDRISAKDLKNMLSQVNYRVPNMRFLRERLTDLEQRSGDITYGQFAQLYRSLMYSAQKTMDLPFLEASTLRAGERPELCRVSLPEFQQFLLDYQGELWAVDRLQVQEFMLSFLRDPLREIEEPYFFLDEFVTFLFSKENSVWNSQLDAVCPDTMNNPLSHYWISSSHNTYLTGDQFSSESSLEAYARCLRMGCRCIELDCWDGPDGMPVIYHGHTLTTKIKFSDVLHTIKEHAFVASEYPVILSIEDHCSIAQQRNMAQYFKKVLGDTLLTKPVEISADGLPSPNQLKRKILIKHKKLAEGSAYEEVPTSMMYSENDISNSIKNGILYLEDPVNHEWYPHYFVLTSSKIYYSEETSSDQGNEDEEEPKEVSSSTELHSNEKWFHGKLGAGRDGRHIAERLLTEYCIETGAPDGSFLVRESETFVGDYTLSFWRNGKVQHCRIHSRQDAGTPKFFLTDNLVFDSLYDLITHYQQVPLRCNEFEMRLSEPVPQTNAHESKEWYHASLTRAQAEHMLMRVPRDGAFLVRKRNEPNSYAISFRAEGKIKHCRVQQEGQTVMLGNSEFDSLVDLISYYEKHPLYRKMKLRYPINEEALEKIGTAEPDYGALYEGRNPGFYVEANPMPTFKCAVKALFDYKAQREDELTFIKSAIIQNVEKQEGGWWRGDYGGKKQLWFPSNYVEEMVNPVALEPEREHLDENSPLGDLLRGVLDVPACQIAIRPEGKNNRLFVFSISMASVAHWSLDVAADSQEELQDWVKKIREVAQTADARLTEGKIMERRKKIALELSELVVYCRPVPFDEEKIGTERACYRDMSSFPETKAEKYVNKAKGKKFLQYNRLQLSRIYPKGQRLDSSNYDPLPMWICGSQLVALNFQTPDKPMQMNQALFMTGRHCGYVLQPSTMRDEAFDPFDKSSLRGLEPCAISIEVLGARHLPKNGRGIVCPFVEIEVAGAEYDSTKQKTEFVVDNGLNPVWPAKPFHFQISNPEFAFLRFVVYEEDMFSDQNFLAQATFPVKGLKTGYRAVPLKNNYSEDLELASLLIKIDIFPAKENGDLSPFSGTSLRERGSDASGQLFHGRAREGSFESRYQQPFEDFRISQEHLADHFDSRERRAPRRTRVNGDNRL

[12] = target: Large T antigen (Simian virus 40, UniProt P03070); assay type: functional, Betapolyomavirus macacae;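 also: Confirmatory-stage PubChem screen for compounds that inhibit SV40 T antigen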
[13] = A549 cell cytotoxicity, dose response, cytotoxicity control, plate reader, cherry-pick, antagonist series (AID 743412); assay type: functional, cell-based
[14] = viability loss in HEK293 cells – cell-based, plate reader, cherry-picked samples, cytotoxicity control, dose response (AID 743446); assay type: functional
[15] = toxicity toward HepG2 liver cells – cell-based, plate reader, cherry-pick, antagonist series, cytotoxicity control, dose response (AID 743416); assay type: functional
[16] = blockers of bursicon-stimulated LGR2 cAMP reporter – cell-based, HEK293, CRE-luciferase reporter, cherry pick, set 2, dose response (AID 743343); assay type: functional;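 also: transfected cells were stimulated with diluted bursicon conditioned medium after compound addition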
[17] = blockade of melanocortin 4 receptor signaling – cell-based, plate reader, cherry pick, counter-screen for LGR2 antagonist project, dose response (AID 743444); assay type: functional;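 also: transfected HEK 293 cells stimulated with alpha-MSH peptide; potency of inhibitors of the alpha-MSH evoked signal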

Large T antigen, sequence (P03070 whole entry): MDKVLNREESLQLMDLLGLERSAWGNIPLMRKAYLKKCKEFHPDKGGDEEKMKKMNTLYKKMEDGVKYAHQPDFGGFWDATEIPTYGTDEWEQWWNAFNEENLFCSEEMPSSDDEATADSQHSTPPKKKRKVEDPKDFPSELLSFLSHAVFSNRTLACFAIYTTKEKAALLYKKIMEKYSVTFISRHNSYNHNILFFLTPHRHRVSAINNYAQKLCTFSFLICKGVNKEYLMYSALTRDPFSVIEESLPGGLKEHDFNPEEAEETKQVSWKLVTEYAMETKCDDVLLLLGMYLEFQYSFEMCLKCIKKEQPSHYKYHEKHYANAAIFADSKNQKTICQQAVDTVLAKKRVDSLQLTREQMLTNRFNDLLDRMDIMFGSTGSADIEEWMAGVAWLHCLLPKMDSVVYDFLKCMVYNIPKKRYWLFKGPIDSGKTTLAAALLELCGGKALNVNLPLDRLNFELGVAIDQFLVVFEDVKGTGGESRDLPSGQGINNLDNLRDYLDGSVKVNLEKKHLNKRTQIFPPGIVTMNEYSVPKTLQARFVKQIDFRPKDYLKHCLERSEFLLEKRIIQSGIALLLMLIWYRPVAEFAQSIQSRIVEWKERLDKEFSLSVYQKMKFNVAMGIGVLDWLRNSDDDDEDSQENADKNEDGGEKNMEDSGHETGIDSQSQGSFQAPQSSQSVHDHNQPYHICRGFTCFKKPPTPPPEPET
Eukaryotic translation initiation factor 4E, sequence (P63073 whole entry): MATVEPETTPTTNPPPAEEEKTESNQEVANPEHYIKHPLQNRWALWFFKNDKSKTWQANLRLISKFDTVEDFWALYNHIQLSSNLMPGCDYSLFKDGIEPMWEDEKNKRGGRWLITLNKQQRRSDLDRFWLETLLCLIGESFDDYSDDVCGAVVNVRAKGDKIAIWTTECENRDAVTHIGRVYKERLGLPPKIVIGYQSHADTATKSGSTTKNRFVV

SMILES: COc1ccccc1S(=O)(=O)N(C)C[C@@H]1Oc2cc(/C=C/c3ccccc3)ccc2S(=O)(=O)N([C@H](C)CO)C[C@H]1C
- AC50 [1]: 0.466 µM (active)
- AC50 [2]: 0.215 µM (active)
- AC50 [3]: 0.443 µM (active)
- AC50 [4]: 0.22 µM (active)
- AC50 [5]: 0.459 µM (active)
- AC50 [6]: 81.6 µM (active)

SMILES: CCNc1nc(NC(C)C)nc(Oc2ccc(OCCOc3ccccc3)nn2)n1
- IC50 [7]: > 64 µM (inactive)

SMILES: O=C(Nc1ccc(F)cc1)N1CCCCN2[C@@H](CO)[C@H](c3ccc(C#Cc4ccccc4)cc3)[C@@H]2C1
- AC50 [8]: 7.42 µM (active)
- AC50 [5]: < 0.3 µM (active)

SMILES: COc1ccccc1-c1ccc2c(c1)[C@@H]1[C@@H](CCN1C(=O)C1CCCCC1)[C@@H](CO)N2
- AC50 [1]: 0.488 µM (active)
- AC50 [2]: 0.498 µM (active)
- AC50 [4]: 0.283 µM (active)
- AC50 [5]: 1.74 µM (active)
- AC50 [6]: 11.1 µM (active)

SMILES: O=C(COC(=O)c1ccccc1C(=O)OCC(=O)NCCc1c[nH]c2ccccc12)NCCc1c[nH]c2ccccc12
- IC50 [9]: > 79 µM (inactive)
- IC50 [10]: > 123 µM (inactive)
- IC50 [11]: > 123 µM (inactive)

SMILES: O=C1NC(=S)S/C1=C\c1ccc(SCc2ccccc2)o1
- IC50 [12]: > 100 µM (active)
- IC50 [10]: > 122 µM (inactive)
- IC50 [11]: > 122 µM (inactive)

SMILES: COc1ccc(-c2coc3c(C(=O)Nc4cc(OC)c(OC)c(OC)c4)cccc23)c(C)c1
- AC50 [13]: 9.94 µM (active)
- AC50 [14]: 15.3 µM (active)
- AC50 [15]: 18.3 µM (active)
- AC50 [16]: 1.2 µM (active)
- AC50 [17]: 0.905 µM (active)

SMILES: CCCc1cn(CC[C@@H]2CC[C@@H](NS(=O)(=O)c3ccc(-c4ccccc4)cc3)[C@@H](CO)O2)nn1
- AC50 [1]: 1.6 µM (active)
- AC50 [2]: 0.949 µM (active)
- AC50 [8]: > 39 µM (inactive)
- AC50 [4]: 0.698 µM (active)
- AC50 [5]: 1.45 µM (active)
- AC50 [6]: 33.6 µM (active)

SMILES: C/N=C1/SC(CC(=O)NCCc2ccc(OC)c(OC)c2)C(=O)N1C (configuration not stated)
- IC50 [10]: > 122 µM (inactive)
- IC50 [11]: > 122 µM (inactive)

SMILES: CCCC#Cc1ccc2c(c1)O[C@@H](CN(C)Cc1ccncc1)[C@H](C)CN([C@@H](C)CO)S2(=O)=O
- AC50 [8]: > 39 µM (inactive)
- AC50 [5]: 3.85 µM (active)

SMILES: OC[C@@H]1[C@H](c2ccc(-c3ccc(F)cc3)cc2)[C@@H](CNC2CCCC2)N1CCC(F)(F)F
- AC50 [1]: 0.259 µM (active)
- AC50 [2]: 0.241 µM (active)
- AC50 [3]: 0.491 µM (active)
- AC50 [8]: > 39 µM (inactive)
- AC50 [4]: 0.113 µM (active)
- AC50 [5]: 0.401 µM (active)
- AC50 [6]: 21.1 µM (active)

SMILES: COc1ccc(-c2nc(-c3ccccc3)no2)c(OC)c1
- AC50 [13]: 28.4 µM (active)
- AC50 [14]: 31.9 µM (active)
- AC50 [15]: 47.6 µM (active)
- AC50 [16]: 0.621 µM (active)
- AC50 [17]: 1.05 µM (active)
